The values that follow come from US20220378727A1 (priority 2021, published 2022).

Where “and” joins values, the source holds several entries; their conditions need not be identical. Identical values can stand only once. Like-named read-outs stand apart in the source and are kept apart here.

For series [1] the following is noted: plasma, i.p. drug suspension, 5 mg/kg tamibarotene, n=5.
The test system of a further series is MERS-CoV. Particulars: from Yuan, et al., Nature Communications 2019, 10, 120; cited from earlier work.
Another series deals with influenza A H1N1 virus. Nature of the series: In vivo prophylactic protection against H1N1 virus. Details: species or system BALB/c mice. As to conditions: for Lung histopathology (H&E) / Viral PA protein expression in lung (immunofluorescence): 3 d.p.i., data not shown; for Viral RNA load in lung tissues compared with PBS: day 3 post-challenge, 5 mg/kg i.t., one-way ANOVA; for Survival rate compared with PBS group: log-rank test, p<0.01. On the procedure:
BALB/c mice were used to investigate the in vivo activity of A2-TFN formulation against influenza A H1N1 virus. The mice were evaluated in divided into four groups (nine mice per group). Prior to virus inoculation, i.t. administration was performed under anesthesia in each group: (i) 20 μL of zanamivir solution (5 mg/mL); (ii) 50 μL of unformulated tamibarotene suspension (2 mg/mL); and (iii) 1 mg of A2-TFN powder. The dose of zanamivir or tamibarotene was 5 mg/kg per mouse. In the fourth group of mice, 50 μL of PBS was i.t. administered as negative control. At 2 h post administration, all the mice were i.n. inoculated with 20 μL of virus suspension containing 100 p.f.u. of HIN virus under anesthesia. Four mice in each group were euthanatized randomly on 3 d.p.i. and the lung tissues were harvested for viral load assay by qRT-PCR method. Animal survival, clinical symptoms and body weight were monitored for 14 days or until the humane endpoint (body weight loss more than 20%) was reached. The lung tissue histopathology of infected mice was examined by hematoxylin and eosin (H&E) and immunofluorescence staining. This experiment was conducted in two independent experiments (n=9 in each group).

Series [2] relates to H1N1 virus. Nature of the series: In vivo therapeutic effect against H1N1 virus, intranasal treatment. The arrangement: species or system BALB/c mice. Particulars: for Viral RNA load in lung compared with PBS group: 3 d.p.i., zanamivir 2 mg/kg i.n., one-way ANOVA; for Viral RNA load in lung compared with PBS group / Survival rate: tamibarotene 0.1 mg/kg; for Survival rate: 14 d.p.i., five i.n. doses from 4 h post 10 p.f.u. H1N1, zanamivir 2 mg/kg, n=7; for Survival rate compared with PBS group: Log-rank test, p<0.01. The protocol:
To evaluate the therapeutic effect of tamibarotene formulation against H1N1 virus, BALB/c mice were i.n. inoculated with 20 μL of virus suspension containing 10 p.f.u. of H1N1 virus under anaesthesia. At 4 h post virus challenge, the first therapeutic dose was initiated and the mice were divided into four groups (11 mice per group) to receive 20 μL of each treatment via i.n. administration: (i) zanamivir solution (2 mg/mL); (ii) unformulated tamibarotene suspension (100 μg/mL); (iii) reconstituted A2-TFN solution (100 μg/mL); and (iv) PBS (as negative control). The dose of tamibarotene was 0.1 mg/kg, and the dose of zanamivir was 2 mg/kg. On day 1 and day 2 post-infection, the therapeutic doses were administered twice a day. On 3 d.p.i., four mice in each group were euthanatized randomly and the lung tissues were harvested for viral load assay by qRT-PCR method. Animal survival, clinical symptoms and body weight were monitored for 14 days or until the humane endpoint (body weight loss more than 20%) was reached. This experiment was conducted in two independent experiments (n=11 in each group).

A short description of the next series: in vivo. As to conditions: BALB/c, mouse, ip, 5 mg/kg; for AUC(0-t): AUC0-8 h; for AUC(0-inf): AUC0-∞—D; for MRT last: MRT0-8 h.
The nature of series [3]: Dissolution study of fine particle dose in simulated lung fluid. It is filed as physicochemical. On the procedure:
The dissolution profile of A2-TFN powders was investigated using a jacketed beaker which contained 100 mL of simulated lung fluid as dissolution medium. The preparation of simulated lung fluid was according to Marques et al. (SLF3 in the article). The temperature was maintained at 37° C. and the medium was stirred at 75 rpm with a magnetic bar. As fine particle dose (FPD, aerodynamic diameter<5 μm) is considered to be the fraction of powder that can deposit in the deep lung region, the FPD of A2-TFN formulation was collected by a Fast Screening Impactor (FSI, Copley Scientific, UK) coupled with Breezhaler® as described before for dissolution study. Approximately 8.5±0.5 mg of A2-TFN powder was dispersed by FSI to separate an FPD (which contained an estimated amount of 0.5 mg of tamibarotene). The powders were placed on a glass fiber filter paper which was then transferred into the jacketed beaker. At pre-determined time intervals, 1 mL of dissolution medium was withdrawn and filtered through 0.45-μm membrane filter. Equal volume of pre-warmed fresh medium was refilled immediately. The unformulated tamibarotene powder was included as control for comparison. The concentration of tamibarotene was quantified by HPLC as described above. The dissolution study was carried out in triplicate.

The test system of series [4] is H1N1 virus. Nature of the series: Plaque reduction assay for antiviral EC50, MDCK cells. As to conditions: Influenza A virus. It is filed as cell-based.
For another series, the system named is SARS-CoV-2. Nature of the series: Plaque reduction assay for antiviral EC50, Vero E6 cells. It counts as cell-based. As to conditions: Severe acute respiratory syndrome coronavirus 2, Vero C1008. The protocol: Plaque reduction assay was performed to plot the 50% antiviral effective dose (EC50). Vero E6 cells were used for SARS-CoV-2 and MDCK cells for influenza A virus. Briefly, cells were seeded at 4×10^5 cells/well in 12-well tissue culture plates on the day before carrying out the assay. After 24 h of incubation, 50 p.f.u. of SARS-CoV-2 or H1N1 virus were added to the cell monolayer with or without the addition of drug compounds and the plates were further incubated for 1 h at 37° C. in 5% CO2 before removal of unbound viral particles by aspiration of the media and washing once with DMEM. Monolayers were then overlaid with media containing 1% low melting agarose (Cambrex Corporation, New Jersey, USA) in DMEM and appropriate concentrations of individual compound, inverted and incubated as above for another 72 h. The wells were then fixed with 10% formaldehyde (BDH, Merck, Darmstadt, Germany) overnight. After removal of the agarose plugs, the monolayers were stained with 0.7% crystal violet (BDH, Merck) and the plaques counted. The percentage of plaque inhibition relative to the control (i.e., without the addition of compound) wells were determined for each drug compound concentration. The EC50 was calculated using Sigma plot (SPSS) in an Excel add-in ED50V10. The plaque reduction assay experiments were performed in triplicate and repeated twice for confirmation.
A general note: Plaque reduction counts the foci of infection that form in a cell layer.

Series [5] in a line: Toxicity study in uninfected mice after intratracheal powder. Particulars: 1 mg powder intratracheally. It is filed as in vivo, BALB/c mice. On the procedure:
HPBCD only powder was prepared according to the same protocol as A2-TFN but without the addition of tamibarotene and tert-butyl alcohol. One milligram of A2-TFN powder or HPBCD powder, or 50 μL of phosphate buffer saline (PBS) was intratracheally administered in healthy BALB/c mice under anesthesia.

[6] abbreviates: lung, i.p. drug suspension, 5 mg/kg tamibarotene.
Setting [7] is: plasma, i.p. drug suspension, 5 mg/kg tamibarotene.

`CC1(C)CCC(C)(C)c2cc(NC(=O)c3ccc(C(=O)O)cc3)ccc21` [tamibarotene]: in series [1], the peak concentration (Cmax) (as a rule, the highest concentration seen after dosing) is 14.2 ± 0.9 µM. The EC50 – broadly, the concentration needed to bring the measured effect to its halfway point – with MERS-CoV was 320 ± 26 nM. In the series on influenza A H1N1 virus, the “Lung histopathology (H&E)” value was “Severe alveolar damage and interstitial inflammatory infiltration”; the “Viral PA protein expression in lung (immunofluorescence)” value is recorded as “diminished but remained noticeable in bronchiolar epithelial cells”; the “Viral RNA load in lung tissues compared with PBS” value is recorded as “significantly lower”; the “Survival rate compared with PBS group” value is reported as “significantly higher”. Moreover, the “Time by which all mice reached humane endpoint” value in the series with influenza A H1N1 virus (single i.t. dose 5 mg/kg 2 h before 100 p.f.u. H1N1) is below 9 d.p.i. For the same compound, in the series with H1N1 virus [2], the “Viral RNA load in lung compared with PBS group” value was “significantly lower”, the Survival rate stood at 71% and the “Survival rate compared with PBS group” value is listed as “significantly higher”. In the series “in vivo”, the Tmax (commonly the time from dosing to the highest level) is 30 min. Moreover, in the series “in vivo” (setting [6]), the AUC(0-t) (commonly exposure summed from dosing to a finite time, without extrapolation to infinity) was 2400 ± 300 ng·h/mL; the AUC(0-inf) (as a rule, total exposure, with the tail of the curve extrapolated) stood at 500 ± 60 ng·h/mL; the MRT last – broadly, the average time that molecules of a dose stay in the body – stood at 36 ± 12 min. In the series “in vivo” (setting [7]), this compound showed an AUC(0-t) of 6000 ± 500 ng·h/mL, an AUC(0-inf) of 1500 ± 200 ng·h/mL and an MRT last of 90 ± 12 min. In addition, the Cmax in “in vivo” (Cmax, lung, i.p. drug suspension, 5 mg/kg tamibarotene, n=5) was 7.4 µM and 2600 ng/mL. In addition, in the series “in vivo” (T1/2, lung, i.p. drug suspension, 5 mg/kg tamibarotene), the half-life (commonly the time needed for the level to fall by half in the phase considered) was 30 ± 4.8 min. The half-life in “in vivo” (T1/2, plasma, i.p. drug suspension, 5 mg/kg tamibarotene) is 108 ± 24 min. For the same compound, in series [3] (Student's t-test, p<0.01), the “Cumulative dissolved drug after 24 h compared with A2-TFN powder” value is on record as “significantly lower”. Also, in [3] (within the first hour, 37° C.), the Drug dissolved entry was “approximately 20%”. The compound further gave an EC50 with H1N1 virus [4] of 1680 ± 980 nM. Besides, the EC50 with SARS-CoV-2 turned out to be 5800 ± 1200 nM.

On to `CC(=O)N[C@H]1[C@H]([C@H](O)[C@H](O)CO)OC(C(=O)O)=C[C@@H]1N=C(N)N` [zanamivir], for which, in the series with influenza A H1N1 virus, the “Lung histopathology (H&E)” value was “alleviated”, the “Viral PA protein expression in lung (immunofluorescence)” value was “diminished but remained noticeable in bronchiolar epithelial cells”, the “Viral RNA load in lung tissues compared with PBS” value is recorded as “no significant difference” and the “Survival rate compared with PBS group” value is “significantly higher”. Also, in the series on influenza A H1N1 virus (14 d.p.i., single i.t. dose 5 mg/kg 2 h before 100 p.f.u. H1N1, n=5), the Survival rate is 60%. In addition, in the series on H1N1 virus [2], the “Viral RNA load in lung compared with PBS group” value is “not been significantly different”, the Survival rate is 86% and the “Survival rate compared with PBS group” value is “significantly higher”.

As for 2-hydroxypropyl-β-cyclodextrin [HPβCD], the “Body weight of uninfected mice” value in series [5] is listed as “recovered more rapidly than A2-TFN group”. Also, the “Toxicity in lung histopathology of uninfected mice” value in [5] (data not shown) is “No marked toxicity”.
